Results taken from patent publication US20060154952A1, “Pharmaceutical compositions comprising a combination of rapamycin or its derivative and pimecrolimus for the treatment of inflammation-and ummunologically-mediated diseases” (priority 2003, published 2006).

Key:
Type in all cases: in vivo
SCID-IBD mice [1] = assay: SCID-IBD mouse model: colon inflammation, histological severity score; details: for effect on colon inflammation (severity scores): low dose study: ASM 10 mg/kg/d, Compound A 0.05 mg/kg/d, alone or combined
Description: (§1) SCID mice are first reconstituted with the CD4^+CD45RB^HI T cells and then treated with test compounds or vehicle as controls. As test compounds Compound A (RAD) and pimecrolimus (ASM) are used. 3 separate studies using different dosaging are carried out. In each study both compounds are administered alone and combined. All 3 studies follow the same basic protocol of 4 groups of mice with one group receiving, by daily oral gavage, both vehicles (placebo), one group Compound A alone, one group ASM alone, and one group a combination of Compound A and pimecrolimus, from day 1 to day 29 after cell transfer.
A photographic picture is taken of the opened abdominal cavity and then a 1 cm long piece of the colon, just above the rectum, is fixed in formalin for histology.
(§2) Specimens are embedded in paraffin, sections (3 μm thick) are cut and stained with H & E. Four colour FACS analysis is performed on cell suspensions prepared from the blood, spleen and mesenteric lymph nodes (MLNS) of each mouse.
All data presented as mean values are qualified by an s.e.m. value. The body weight data are analysed either by repeated measures analysis or by first finding the mean AUC and then applying an ANOVA multiple comparison test with Tukey post hoc correction. Histology scores are represented as the mean severity score and compared with a Wilcoxon-Mann-Whitney test with exact p-values (StatXact-5 software) and Bonferroni post hoc correction factor. All other data are first analysed for normal distribution and then the ANOVA test for multiple comparison is applied. Statistical significance is taken as p<0.05.
The inflammation in the colon of SCID-IBD mice shares many features observed in lesional tissue of a Crohn's diseased colon. In order to examine the intestinal mucosal damage in SCID-IBD mice a histological examination of the colon sections was performed according to defined morphological parameters. The severe colitis associated with this model of IBD is characterized with a massive cellular infiltrate which in places involves nearly all of the submucosa. The infiltrate is mixed and comprised of lymphocytes, macrophages, neutrophils and some eosinophils. Also evident is the loss of crypt architecture, extensive elongation and epithelial hyperplasia. A severely inflamed colon section will also have crypt abscesses. Numeric scores were given as per the following scheme: a score of 0 to 3 is given for the leucocyte infiltrate where 1 is mild, 2 is moderate and 3 is a severe infiltrate including the submucosal layer. A score of 0 to 2 is given for Goblet cell depletion where 2 is given for a complete lack of the alcian blue staining, 0 is given for a normal amount of staining and 1 is intermediate. […] The maximum possible score is 8 and (PBS)-mice are scored 0. […]

SCID-IBD mice [2] = assay: SCID-IBD mouse model: loss of body weight; details: for effect on the loss of body weight: either compound alone at the dosages used (ASM 60, 30, 10 mg/kg/d; Compound A 0.1, 0.05 mg/kg/d), daily oral gavage
Description: (§3) Female BALB/cJ and C.B.17 scid/scid mice (Fox Chase SCID®, Bomholtgaard, Denmark) are maintained in ventilated cage racks (Micro-vent type 84-II, Allentown Caging Equipment Co., Allentown, N.J., USA) under specific pathogen free conditions. The experimental procedures performed on the mice are authorized under the license number MA 1048/00 (Magistratabteilung No. 58, Amt der Wiener Landesregierung).
Briefly, CD4^+CD45RB^HI T lymphocytes are isolated from BALB/c mouse spleens by two-colour FACS-sorting through a live/dead gate and injected (2×10^5 cells/mouse, i.p.) into 6-9 week old female SCID mice. Negative control mice receive PBS i.p. and one such mouse is in each cage as a sentinel to monitor possible infections in this immunodeficient colony (PBS-mice).
SCID mice are first reconstituted with the CD4^+CD45RB^HI T cells and then treated with test compounds or vehicle as controls. As test compounds Compound A (RAD) and pimecrolimus (ASM) are used. 3 separate studies using different dosaging are carried out. In each study both compounds are administered alone and combined. […]
The body weight of each mouse is monitored throughout and at the end of the study mice are weighed.
All data presented as mean values are qualified by an s.e.m. value. The body weight data are analysed either by repeated measures analysis or by first finding the mean AUC and then applying an ANOVA multiple comparison test with Tukey post hoc correction. […] All other data are first analysed for normal distribution and then the ANOVA test for multiple comparison is applied. […]
The first visible symptom resulting from the transfer of disease causing CD4^+CD45RB^HI T cells to SCID mice is a severe loss of body weight, usually significant 21 days after transfer. […] In the 3 individual studies described herein, the mean % difference in body weight between the non-transferred and the vehicle-treated mice is calculated to be 16.3±1.8%.

SCID-IBD mice [3] = assay: SCID-IBD mouse model: lymphocyte numbers (CD3+CD4+) by FACS in blood, spleen and MLN; details: for lymphocyte numbers in single treatment groups: study 2: ASM 30 mg/kg/d or Compound A 0.1 mg/kg/d administered alone
Description: as §1
Blood is also taken into 10 mM EDTA for preparation for FACS analysis.
The spleen and MLN are taken from each mouse, weighed and processed for FACS analysis of single cell suspensions.
as §2
Antibodies are obtained from Pharmingen. Cells which are double positive for CD3 and CD4 are counted as lymphocytes. Cells positive for Ly-6G (myeloid differentiation antigen) and negative for CD3 or CD4 are neutrophils (also their cellular characteristics (forward and side scatter) distinguishes them from the other cells).
The number of cells per sample is calculated from the total cell number in each cell suspension and the % of positively identified (samples analysed on a FACS Calibur® using CellQuest Pro® software) cells per sample.
(§4) The mean of these values for a group of mice can thus be calculated. To process some of the data further, the determined values are adjusted by subtracting the background value found in non-transferred mice and calculating the % reduction, or indeed increase, in mean cell number, relative to the placebo treated group.

SCID-IBD mice [4] = assay: SCID-IBD mouse model: overall disease inhibition / effective dose; details: single treatment groups: ASM 60, 30, 10 mg/kg/d; Compound A 0.1, 0.05 mg/kg/d
Description: as §3
Briefly, CD4^+CD45RB^HI T lymphocytes are isolated from BALB/c mouse spleens by two-colour FACS-sorting through a live/dead gate and injected (2×10^5 cells/mouse, i.p.) into 6-9 week old female SCID mice. […]
(§5) The increasing T cell population with time also results in an increase in size of lymphoid organs which are otherwise comparatively small in the non-transferred SCID mouse. By day 28 post T cell transfer the inflammation is relatively consistent within a group of mice and this has been adopted as the shortest time where accurate effects of treatment with test compounds can be measured. The effects of a range of doses of Compound A and ASM as single preventative compounds are, in brief, comparative effective dose ranges are found to be from 30 to 100 mg/kg/d administration of ASM and 0.1 to 1 mg/kg/d of Compound A. In the present tests sub-maximal doses of each compounds are used and the effect of the single and combined treatment in the same study is determined.

SCID-IBD mice [5] = assay: SCID-IBD mouse model: serum haptoglobin levels; details: for reduction of serum haptoglobin levels: ASM at 60 and 30 mg/kg/d, Compound A at 0.1 or 0.05 mg/kg/d, alone; for % reduction of serum haptoglobin: low dose study: ASM 10 mg/kg/d, Compound A 0.05 mg/kg/d, alone or combined
Description: as §1
The mice are anaesthetized at the end of the study and blood withdrawn via cardiac puncture for separation into serum which is frozen and stored at −80°.
as §4, §5

| SMILES | effect on colon inflammation (histology severity score) (SCID-IBD mice [1]; ASM981 60 mg/kg/d alone) | effect on colon inflammation (severity scores) (SCID-IBD mice [1]) | inhibition of weight loss (SCID-IBD mice [2]; ASM alone 60 mg/kg/d, daily oral gavage day 1 to 29) | effect on the loss of body weight (SCID-IBD mice [2]) | reduction in lymphocyte numbers in MLN (SCID-IBD mice [3]; study 1: ASM 60 mg/kg/d, alone or combined with Compound A 0.1 mg/kg/d) | lymphocyte numbers in single treatment groups (SCID-IBD mice [3]) | disease inhibition, single treatment (SCID-IBD mice [4]) | reduction of serum haptoglobin levels (SCID-IBD mice [5]) | % reduction of serum haptoglobin (SCID-IBD mice [5]) | activity on colon inflammation (SCID-IBD mice [1]; Compound A alone at doses below 0.5 mg/kg/d) | effects on lymphocyte numbers (SCID-IBD mice [3]; Compound A 0.1 mg/kg/d alone) |
| --- | --- | --- | --- | --- | --- | --- | --- | --- | --- | --- | --- |
| CC[C@@H]1/C=C(\C)C[C@H](C)C[C@H](OC)[C@H]2O[C@@](O)(C(=O)C(=O)N3CCCC[C@H]3C(=O)O[C@H](/C(C)=C/[C@@H]3CC[C@H](Cl)[C@H](OC)C3)[C@H](C)[C@@H](O)CC1=O)[C@H](C)C[C@@H]2OC [ASM, {[1E-(1R,3R,4S)]1R,9S,12S,13R,14S,17R,18E,21S,23S,24R,25S,27R}-12-[2-(4-chloro-3-methoxycyclohexyl)-1-methylvinyl]-17-ethyl-1,14-dihydroxy-23,25-dimethoxy-13,19,21,27-tetramethyl-1,28,dioxa-4-azatricyclo [22.3.1.0(4,9)]octacos-18-ene-2,3,10,16-tetraone] | significant effect | very little effect | significant, but low inhibition of weight loss | only minor effects | 73.5% | not reduced | significant effects | potently reduces | 32.7% | – | – |
| CO[C@H]1C[C@@H]2CC[C@@H](C)[C@@](O)(O2)C(=O)C(=O)N2CCCC[C@H]2C(=O)O[C@H]([C@H](C)C[C@@H]2CC[C@@H](OCCO)[C@H](OC)C2)CC(=O)[C@H](C)/C=C(\C)[C@@H](O)[C@@H](OC)C(=O)[C@H](C)C[C@H](C)/C=C/C=C/C=C/1C [Compound A, 40-O-(2-hydroxyethyl)-rapamycin] | – | very little effect | – | only minor effects | – | not reduced | – | very weakly active | 27.4% | not significantly active | only weal, if any effects |
